Values after ≈ are worked out from the molar mass of the structure shown. Like-named read-outs stand apart in the source and are kept apart here.
How the values were obtained:
Aqueous solubility = type: physicochemical; conditions: for solubility at 24 h: deionised water, 37 °C, pH 5.9, water, thermodynamic from solid, pH 5.90, 24 hours agitation
Method: Known amounts of the compounds were suspended by agitation for 24 hours. The filtrates were isolated and content of the appropriate compounds was determined by HPLC analysis.

[1] = Plasma pharmacokinetics after single intravenous and oral administration; set-up: species or system male C57BL/6 mice; conditions: male, C57BL/6, mouse, in vivo
Method: To gain insight into pharmacological properties of synthetic 17,18-EEQ agonists pharmacokinetic studies were performed with two selected compounds (Comp-02 and Comp-06). These compounds were pharmacologically evaluated in plasma after single intravenous and oral administration. Therefore, male C57BL/6 mice (Janvier Labs (France), n=12 per group) were administered to the test item at a dose of 2 mg/kg (i.v.) and 8 mg/kg (p.o.), respectively. Intravenous application of Comp-02 (sodium salt in isotonic salt solution) and Comp-06 (free acid in DMSO/PEG400 20:80) was performed via the tail vein, and for oral administration via gavage. […] Blood sampling was of 100 μl were obtained at two different time point for each mouse (0.083/2 h, 0.25/4 h, 0.5/8 h and 1/24 h). Biological samples were subjected to an extraction procedure (40 μl Acetonitril+22.4 μl sample, shaking, 10 min centrifugation at 6000×g at room temperature, dilution of 50 μl supernatant 1:1 with water). For analysis 20 μl of sample were injected into the LC-MS, Accela 1250 UHPLC system, Accela Open Autosampler, Q-Exactive mass spectrometer (Thermo Fisher Scientific). Appropriate samples were used as controls: zero sample, calibration standard and QC sample. The pharmacokinetic analysis were performed applying a non-compartment model using the Kinetica 5.0 software (Thermo Scientific, Waltham, USA). All given parameters were obtained by trapezoid area calculation.

[2] = tested on: spontaneously beating neonatal rat cardiomyocytes (NRCMs); assay: Spontaneous beating rate of neonatal rat cardiomyocytes (anti-arrhythmic cell model); type: cell-based; conditions: 20 nM or 30 nM; comparison between analogs
Method: The compounds include analogues being part of the invention (Comp-01 to Comp-05), which were synthesized as described in example 1, and additional related compounds (Comp-06 to Comp-13). A 1000-fold stock solutions in ethanol of the test compounds was prepared before use.
In order to measure the biological activities of metabolically robust analogs of CYP-eicosanoids an established cell model was used (Kang, J. X. et al., Proc Natl Acad Sci USA, 1994. 91(21): p. 9886-90). The spontaneously beating neonatal rat cardiomyocytes (NRCMs) are a model system to investigate anti-arrhythmic effects of test-compounds. […]
Isolation and cultivation of NRCMs were performed as described previously (Wallukat, G et al., J Clin Invest. 1999; 103: 945-952; Falck, J R et al., J Med Chem. 2011 Jun. 23; 54(12):4109-18). […] After four hours of incubation cells were adopted for 10 min to 31° C. and beating was recorded using an inverted microscope (Leica DM IRB) equipped with a CCD camera and coupled to an IonOptix (software: IonWizard6, IonOptix). To determine the basal rate, 6 to 8 individual clusters were selected and the number of contractions was counted for 15 sec. After that, the compound to be tested was added to the culture and the beating rate of the same clusters was monitored 5 min later again. […]

[3] = tested on: isolated mouse hearts of 12-14 week old male C57BL6/n animals; assay: Ischemia-reperfusion of isolated Langendorff-perfused mouse hearts (Example 11)
Method: Study design: To gain insight into the cardioprotective effects of synthetic 17,18-EEQ-agonists, ischemia-reperfusion studies were performed in isolated mouse hearts of 12-14 week old male C57BL6/n animals. Briefly, mice were anesthetized with i.p. injected pentobarbital/heparin, hearts were rapidly removed and perfused in a Langendorff apparatus. Excised hearts were put in ice-cold Krebs-Henseleit buffer and aortas were cannulated. Modified Krebs-Henseleit buffer for retrograde perfusion contained 118 mM NaCl, 3.5 mM KCl, 1.3 mM MgSO4, 2.5 mM CaCl2, 24.7 mM NaHCO3, 1.4 mM KH2PO4 and 11 mM glucose, was aerated with 95% O2-5% CO2 and kept at constant temperature of 37° C. and pH 7.3. Perfusion pressure was adjusted to 80 mmHg and a latex balloon connected to a pressure transducer was inserted in the left ventricle through the left atrium. Hearts were perfused with buffer for a 15 minutes stabilisation period, followed by 10 minutes perfusion with either the agonistic analog Comp-02 (100 nM) or vehicle (0.9% NaCl in water). Afterwards hearts were subjected to 35 minutes global no-flow ischemia followed by 40 minutes of reperfusion. Compound or vehicle perfusion was kept constant during the reperfusion time. To analyse recovery of contractile function the left ventricular developed pressure (LVdP) at different time points during reperfusion was measured and expressed as percentage of pre-ischemic LVdP. Exclusion criteria for the hearts were: (i) a LVdP below 60 mmHg at the end of the stabilisation phase (baseline measurement), (ii) a heart rate below 260 bpm, (iii) coronary flow below 1.5 or over 4 ml/min and finally (iv) severe sustained arrhythmias during the stabilisation phase. The results are presented in FIG. 1 and expressed as mean±SEM percentage of pre-ischemic LVdP. Data were analysed by two-tailed unpaired Student's t test and considered significant if p<0.05*.

CNC(=O)C(=O)NCCCC/C=C\CCCCCCCOCC(=O)O [Comp-02, 2-((13-(2-(methylamino)-2-oxoacetamido)tridec-8(Z)-en-1-yl)oxy)acetic acid]
solubility in deionised water relative to Comp-06 (Aqueous solubility; 37° C.): ~10 ×
solubility at 24 h (Aqueous solubility; read-out: Average solubility at 37° C.): 0.068 mg/mL (≈ 191 µM)
solubility at 24 h (Aqueous solubility; read-out: Highest solubility value at 37° C.): 0.075 mg/mL (≈ 210 µM)
solubility at 24 h (Aqueous solubility; read-out: Lowest solubility value at 37° C.): 0.059 mg/mL (≈ 166 µM)
AUC(0-inf) ([1]; iv, 2 mg/kg): 0.524 µg·h/mL
bioavailability ([1]; iv, 2 mg/kg): 100%
AUC(0-inf) ([1]; po, 8 mg/kg): 1.82 µg·h/mL
Cmax, maximal observed plasma concentration ([1]; po, 8 mg/kg): 0.9038 µg/mL
Tmax ([1]; po, 8 mg/kg): 18 min
bioavailability ([1]; po, 8 mg/kg): 87%
Cmax ([1]; po, 8 mg/kg, Cmax, maximal observed plasma concentration): 0.903 µg/mL
negative chronotropic effect on NRCMs, in words [2]: equal potency
functional recovery, LVdP as percentage of pre-ischemic LVdP ([3]; 100 nM, 10 minutes reperfusion): 18%
functional recovery, LVdP as percentage of pre-ischemic LVdP ([3]; 100 nM, 40 minutes reperfusion): 59%
post-ischemic recovery of contractility function, in words ([3]; 100 nM, vs control group): significantly improved post-ischemic recovery of contractility function
obvious negative side effects ([3]; continuous infusion of 100 nM): did not induce any obvious negative side effects
